Data set [1] relates to PPARα-dependent genes (ACO and CPT-1) after CEPT1 knockdown. The data set can be described thus: Rescue of ACO and CPT-1 expression in Hepa 1-6 cells treated with CEPT1 siRNA. The format is cell-based, mouse. To be noted: 72 h CEPT1 siRNA, then 50 μM for 24 h. As for the experimental part:
The C57BL/6 mouse hepatoma cell line Hepa 1-6 (ATCC, CRL-1830) was expanded in DMEM with 10% fetal bovine serum. For experiments, cells were cultured to 50-60% confluence, washed twice with PBS, and the medium was changed to serum-free DMEM supplemented with the various types and concentrations of phosphatidylcholine (sonicated to homogeneity in PBS/1% ethanol/4% fatty acid-free BSA), Wy14,643 (dissolved in 80% PBS/20% DMSO), or vehicle-only solutions. 24 h later, cells were washed, RNA prepared, and ACO and CPT-1 expression levels were determined by quantitative RT-PCR (see FIG. 6). For siRNA experiments, 50-60% confluent cells were treated with siRNAs or their scrambled controls (all diluted in PBS) for 72 h. […]
(§1) Stealth™ siRNA oligonucleotides were used to inhibit the gene expression of mouse ChPT1 ([…]) (SEQ ID NO: 1) and CEPT1 ([…]) (SEQ ID NO: 2) were from Invitrogen (Carlsbad, Calif.). […] Expression of ACO and CPT-1 was also assessed 24 h after addition of 50 μM 16:0/18:1-GPC in a subset of Hepa 1-6 cells previously treated with CEPT1 siRNA. mRNA levels are normalized to control L32 ribosomal mRNA. […] FIGS. 6F-H show the binding of various peptide motifs to the purified PPARα (FIG. 6F), PPARδ (FIG. 6G), and PPARγ (FIG. 6H) LBD in the presence of 5 μM of the corresponding PPAR agonist or 16:0/18:1-GPC as measured by AlphaScreen assays. […]

Data set [2] deals with T1, PPARδ LBD (Homo sapiens, UniProt Q03181).
T1 construct: Identical experiments were performed using the PPARδ and PPARγ LBDs; 6xHis; made in house
T1 sequence (Q03181 211-439 limits assumed): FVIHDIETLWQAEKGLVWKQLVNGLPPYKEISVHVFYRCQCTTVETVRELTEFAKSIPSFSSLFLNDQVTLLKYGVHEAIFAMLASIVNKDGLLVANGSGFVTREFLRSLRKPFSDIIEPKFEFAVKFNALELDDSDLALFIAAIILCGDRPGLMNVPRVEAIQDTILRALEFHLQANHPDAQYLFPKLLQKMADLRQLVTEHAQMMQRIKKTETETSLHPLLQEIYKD
Kind of data set: ALPHASCREEN binding assay, PPARδ ligand binding domain. The note with it: 5 μM; compared with PPARδ activator GW0742. The method, then: Binding of 16:0/18:1-GPC and known agonists to the ligand binding domain (LBD) of PPARα in the presence of various peptide motifs was determined by ALPHASCREEN™ assay (Proc Natl Acad Sci USA 105, pp. 5034-5039, 2008). Experiments used 100 nM receptor LBD, purified as 6× His tag fusion proteins (Mol Cell 17, pp. 491-502, 2005), and 20 nM of N-terminal biotinylated CBP1 peptide or other coactivator peptides in the presence of 5 μg/ml donor and acceptor beads in 50 mM MOPS (pH 7.4), 100 mM NaCl, and 0.1 mg/ml BSA for 90 min at 25° C. Signals were generated in the absence or the presence of ligand. Identical experiments were performed using the PPARδ and PPARγ LBDs.
as §1

Data set [3] relates to hepatic steatosis. Kind of data set: Portal vein infusion, liver fat / triglyceride content in zero fat diet and fasting fatty liver model. The format is in vivo, mouse.
Data set [4] concerns PPARα target gene acyl CoA oxidase. The data set can be described thus: Establishing conditions (dose, rate) for portal vein infusion. The class given is in vivo, mouse. The method, then:
We therefore extrapolated the doses in mice taking into account the direct intraportal route, and tested doses ranging from 0.1 mg/day to 10 mg/day based on a 25 g mouse. […] Optimal dosing frequency was determined based on kinetic data obtained by injection of ^14C-labeled 16:0/18:1-GPC (American Radiochemicals, St. Louis) into the portal vein of […] mice as shown in FIG. 12. Following a single injection into the portal vein (1.9 μCi/mouse), total counts from both cytoplasmic and nuclear fractions were obtained (FIG. 12A). Using standard pharmacokinetic equations (Hardman et al., 2001), a dosing interval of 8.7 hours was calculated, indicating an optimal dosing frequency of three times a day.

As for `CCCCCCCC/C=C\CCCCCCCC(=O)O[C@H](COC(=O)CCCCCCCCCCCCCCC)COP(=O)([O-])OCC[N+](C)(C)C` [16:0/18:1-GPC, 1-palmitoyl-2-oleoyl-sn-glycerol-3-phosphocholine], in data set [1], the “rescue of decreased PPARα-dependent genes (ACO, CPT-1) after CEPT1 knockdown” value is listed as “rescued”. The “interaction with PPARδ” value in data set [2] was “insubstantial”. Further, in data set [3] (PPARα-deficient mice, 10 mg/kg intraportal three times a day, 5 days ZFD, 24 h fast), the liver lipid content entry is recorded as “unaffected”. The liver fat content entry in data set [3] (control (C57/BL6) mice, 10 mg/kg intraportal three times a day, 5 days ZFD, 24 h fast, vs vehicle) is “decreased”. Besides, the “effect of intraperitoneal administration” value in data set [3] (intraperitoneal route, preliminary results (data not shown)) was “no effect”. Moreover, the “lowest dose causing increased expression of the PPARα target gene acyl CoA oxidase” value in data set [4] (intraportal, rapid infusion (<1 min), mice) is on record as 10 mg/kg. Besides, the solubility of infusate entry in data set [4] (larger doses and slower infusion rates) is recorded as “poor solubility”. For the same compound, in data set [4] (larger doses and slower infusion rates, portal vein), the lethality entry is recorded as “death due to portal vein thrombosis”.
